# Results from DBAASP.
# Legend:
# Assay in all cases: ≥ marks a high value that may be exact or a test limit, other limits are often not marked, values filed in µg/mL are converted to µM
# [1] = tested on: Mycobacterium tuberculosis H37Rv
# [2] = tested on: Micrococcus luteus ATCC 4698
# [3] = tested on: Escherichia coli DH5alpha
# [4] = tested on: Staphylococcus epidermidis ATCC 12228
# [5] = tested on: Staphylococcus aureus ATCC 6538
# [6] = tested on: Escherichia coli ATCC 25922
# Saccharomyces cerevisiae = tested on: Saccharomyces cerevisiae
# Micrococcus luteus = tested on: Micrococcus luteus
# [7] = tested on: Staphylococcus aureus ATCC 25923
# [8] = tested on: Pseudomonas aeruginosa ATCC 15692
# [9] = tested on: Salmonella enterica subsp. enterica serovar Typhimurium ATCC 14028
# [10] = tested on: Pseudomonas aeruginosa ATCC 13388
# [11] = tested on: Klebsiella pneumoniae ATCC 10031
# [12] = tested on: Escherichia coli ATCC 11219
# Bacillus megaterium = tested on: Bacillus megaterium
# [13] = tested on: Pseudomonas aeruginosa ATCC 27853
# Escherichia coli ML-35 = tested on: Escherichia coli ML-35
# [14] = tested on: Staphylococcus aureus ATCC 29213
# [15] = tested on: Bacillus subtilis ATCC 23857
# Salmonella typhimurium = tested on: Salmonella typhimurium
# Pseudomonas aeruginosa = tested on: Pseudomonas aeruginosa
# [16] = tested on: Micrococcus luteus ATCC 9341
# Klebsiella pneumoniae = tested on: Klebsiella pneumoniae
# [17] = tested on: Escherichia coli ATCC 8739
structure (smiles),measurement,setting,value
CSCC[C@H](NC(=O)CNC(=O)[C@H](CC(C)C)NC(=O)[C@H](CCCN=C(N)N)NC(=O)[C@H](CCCN=C(N)N)NC(=O)[C@H](C)N)C(=O)N[C@@H](CC(N)=O)C(=O)N1CCC[C@H]1C(=O)N[C@@H](Cc1c[nH]c2ccccc12)C(=O)N[C@@H](CCCCN)C(=O)N[C@H](C(=O)N1CCC[C@H]1C(=O)N1CCC[C@H]1C(=O)N[C@@H](C)C(=O)N[C@@H](CCCCN)C(=O)N1CCC[C@H]1C(=O)N[C@@H](CCCCN)C(=O)NCC(=O)N[C@@H](CO)C(=O)N[C@@H](CCCCN)C(=O)O)[C@@H](C)O [ARRLGMNPWKTPPAKPKGSK],MIC,[1],≥ 90.1 µM
CC(C)C[C@H](NC(=O)[C@H](CC(C)C)NC(=O)[C@H](CCCCN)NC(=O)[C@H](CO)NC(=O)[C@@H](NC(=O)[C@@H](NC(=O)[C@H](CCCCN)NC(=O)[C@H](Cc1ccccc1)NC(=O)[C@H](CC(C)C)NC(=O)[C@H](C)NC(=O)CNC(=O)[C@H](CC(C)C)NC(=O)[C@@H](N)Cc1ccccc1)C(C)C)C(C)C)C(=O)O [FLGALFKVVSKLL],MIC,[2],4.18 µM
same,MIC,[3],27.9 µM
same,MIC,[4],9.76 µM
same,MIC,[5],5.58 µM
CC(C)C[C@H](NC(=O)[C@H](CC(C)C)NC(=O)[C@H](CCCCN)NC(=O)[C@H](CO)NC(=O)[C@H](CC(C)C)NC(=O)[C@H](C)NC(=O)[C@H](CCCCN)NC(=O)[C@@H](NC(=O)[C@H](CC(C)C)NC(=O)[C@H](C)NC(=O)CNC(=O)[C@H](CC(C)C)NC(=O)[C@@H](N)Cc1ccccc1)C(C)C)C(=O)O [FLGALVKALSKLL],MIC,[2],3.64 µM
same,MIC,[3],21.9 µM
same,MIC,[4],8.01 µM
same,MIC,[5],5.1 µM
CC[C@H](C)[C@H](NC(=O)[C@H](C)NC(=O)[C@H](CC(N)=O)NC(=O)[C@@H](NC(=O)CNC(=O)CNC(=O)[C@H](CCCCN)NC(=O)[C@H](C)NC(=O)[C@H](Cc1ccccc1)NC(=O)[C@H](CCCCN)NC(=O)[C@H](CCCCN)NC(=O)[C@H](C)NC(=O)[C@H](Cc1ccccc1)NC(=O)[C@H](CC(N)=O)NC(=O)[C@H](C)NC(=O)[C@@H](NC(=O)[C@H](CCCCN)NC(=O)[C@H](CO)NC(=O)[C@H](CCSC)NC(=O)[C@H](Cc1ccccc1)NC(=O)CN)C(C)C)C(C)C)C(=O)N[C@@H](CCSC)C(=O)N[C@@H](CC(N)=O)C(=O)N[C@@H](CCC(N)=O)C(=O)N[C@@H](CCCCN)C(=O)O [GFMSKVANFAKKFAKGGVNAIMNQK],MIC,[6],1 µM
same,MIC,Saccharomyces cerevisiae,8 µM
same,MIC,Micrococcus luteus,0.5 µM
same,MIC,[7],128 µM
same,MIC,[8],4 µM
CC[C@H](C)[C@H](NC(=O)CN)C(=O)NCC(=O)N[C@@H](CCCCN)C(=O)N[C@@H](Cc1ccccc1)C(=O)N[C@@H](CC(C)C)C(=O)N[C@@H](CCCCN)C(=O)N[C@@H](CO)C(=O)N[C@@H](CCCCN)C(=O)NCC(=O)N[C@@H](CCCCN)C(=O)N[C@@H](Cc1ccccc1)C(=O)NCC(=O)N[C@@H](CCCCN)C(=O)N[C@@H](C)C(=O)O [GIGKFLKSKGKFGKA],MIC,[1],≥ 192 µM
CC[C@H](C)[C@H](NC(=O)CN)C(=O)N[C@@H](Cc1cnc[nH]1)C(=O)N[C@@H](CC(=O)O)C(=O)N[C@@H](C)C(=O)N[C@@H](CC(C)C)C(=O)N[C@@H](CCCCN)C(=O)N[C@@H](Cc1ccc(O)cc1)C(=O)NCC(=O)N[C@@H](CCCCN)C(=O)N1CCC[C@H]1C(=O)N[C@@H](CO)C(N)=O [GIHDALKYGKPS],MIC,[9],4 µM
same,MIC,[10],10 µM
same,MIC,[11],20 µM
same,MIC,[5],20 µM
same,MIC,[12],20 µM
CC(C)C[C@H](NC(=O)CNC(=O)[C@H](C)NC(=O)[C@@H](NC(=O)[C@H](CC(N)=O)NC(=O)[C@H](CO)NC(=O)[C@H](CC(C)C)NC(=O)[C@H](CC(C)C)NC(=O)CN)C(C)C)C(=O)N[C@@H](CC(C)C)C(=O)N[C@@H](CCCCN)C(=O)N[C@@H](CCC(N)=O)C(=O)N[C@@H](Cc1ccccc1)C(=O)N[C@@H](C)C(=O)N[C@@H](CCCCN)C(=O)NCC(=O)NCC(=O)N[C@H](C(=O)N[C@@H](CC(N)=O)C(=O)N[C@@H](C)C(=O)N[C@H](C(=O)N[C@@H](CC(C)C)C(=O)N[C@@H](CC(N)=O)C(=O)N1CCC[C@H]1C(=O)N[C@@H](CCCCN)C(=O)O)C(C)C)C(C)C [GLLSNVAGLLKQFAKGGVNAVLNPK],MIC,[6],8 µM
same,MIC,Saccharomyces cerevisiae,≥ 32 µM
same,MIC,Micrococcus luteus,1 µM
same,MIC,[7],128 µM
same,MIC,[8],≥ 32 µM
CC[C@H](C)[C@H](NC(=O)[C@H](CCCCN)NC(=O)[C@H](CCCCN)NC(=O)[C@H](CC(C)C)NC(=O)[C@H](CCCCN)NC(=O)[C@H](CCC(=O)O)NC(=O)[C@H](CCCCN)NC(=O)[C@@H]1CCCN1C(=O)[C@H](CCCCN)NC(=O)[C@H](CC(N)=O)NC(=O)[C@H](CCCN=C(N)N)NC(=O)[C@@H]1CCCN1C(=O)[C@H](CCCCN)NC(=O)[C@H](CCCN=C(N)N)NC(=O)[C@H](CC(C)C)NC(=O)[C@H](CCCN=C(N)N)NC(=O)[C@H](CCCCN)NC(=O)[C@H](CCCN=C(N)N)NC(=O)[C@H](CC(C)C)NC(=O)CN)C(=O)O [GLRKRLRKPRNKPKEKLKKI],MIC,[9],> 64 µM
same,MIC,Bacillus megaterium,≥ 64 µM
same,MIC,[6],> 64 µM
same,MIC,[13],> 64 µM
same,MIC,[7],> 64 µM
same,MIC,Escherichia coli ML-35,≥ 64 µM
CC[C@H](C)[C@H](N)C(=O)N[C@@H](CC(C)C)C(=O)NCC(=O)N[C@H](C(=O)N[C@H](C(=O)N1CCC[C@H]1C(=O)NCC(=O)N[C@@H](CC(C)C)C(=O)N[C@@H](CC(C)C)C(=O)N[C@@H](CCCCN)C(=O)NCC(=O)N[C@@H](CC(C)C)C(N)=O)[C@@H](C)CC)[C@@H](C)O [ILGTIPGLLKGL],MIC,[14],> 256 µM
same,MIC,[6],> 256 µM
same,MIC,[4],> 256 µM
same,MIC,[15],≥ 256 µM
same,MIC,Escherichia coli ML-35,≥ 256 µM
CC[C@H](C)[C@H](N)C(=O)N[C@@H](CC(C)C)C(=O)N1CCC[C@H]1C(=O)N[C@@H](Cc1c[nH]c2ccccc12)C(=O)N[C@@H](CCCCN)C(=O)N[C@@H](Cc1c[nH]c2ccccc12)C(=O)N1CCC[C@H]1C(=O)N[C@@H](Cc1c[nH]c2ccccc12)C(=O)N[C@@H](Cc1c[nH]c2ccccc12)C(=O)N[C@@H](C)C(=O)N[C@@H](Cc1c[nH]c2ccccc12)C(=O)N[C@@H](CCCN=C(N)N)C(=O)N[C@@H](CCCN=C(N)N)C(N)=O [ILPWKWPWWAWRR],MIC,Salmonella typhimurium,≥ 50 µM
same,MIC,Pseudomonas aeruginosa,50 µM
same,MIC,[3],15 µM
same,MIC,[16],1.6 µM
same,MIC,Klebsiella pneumoniae,25 µM
CC(C)[C@H](NC(=O)[C@H](CCCCN)NC(=O)[C@H](Cc1ccccc1)NC(=O)[C@@H](NC(=O)[C@@H](NC(=O)[C@@H](N)CCCCN)C(C)C)C(C)C)C(=O)N[C@@H](CCCCN)C(=O)N[C@@H](Cc1ccccc1)C(=O)N[C@@H](CCCCN)C(N)=O [KVVFKVKFK],MIC,[16],5.57 µM
same,MIC,[5],5.57 µM
CC[C@H](C)[C@H](NC(=O)[C@H](CCCCN)NC(=O)[C@H](Cc1ccc(O)cc1)NC(=O)[C@H](Cc1ccccc1)NC(=O)[C@H](CCC(N)=O)NC(=O)[C@H](CO)NC(=O)[C@H](CCC(=O)O)NC(=O)[C@H](CCCN=C(N)N)NC(=O)[C@H](CC(N)=O)NC(=O)[C@@H]1CCCN1)C(=O)N[C@@H](CC(C)C)C(=O)N[C@@H](CCCN=C(N)N)C(=O)N[C@@H](CCCCN)C(=O)N[C@H](C(=O)N[C@@H](CC(C)C)C(=O)N[C@@H](CO)C(=O)N[C@@H](CCCCN)C(=O)N[C@H](C(=O)N[C@H](C(=O)O)C(C)C)[C@@H](C)CC)[C@@H](C)CC [PNRESQFYKILRKILSKIV],MIC,[17],6.86 µM
same,MIC,[7],27.4 µM
CC[C@H](C)[C@H](NC(=O)[C@H](CCCCN)NC(=O)[C@H](CCCN=C(N)N)NC(=O)CNC(=O)[C@H](CC(C)C)NC(=O)[C@H](CCCN=C(N)N)NC(=O)[C@H](CCCN=C(N)N)NC(=O)[C@H](CC(C)C)NC(=O)CNC(=O)[C@H](CCCN=C(N)N)NC(C)=O)C(=O)N[C@@H](CCCCN)C(=O)N[C@@H](CCCCN)C(=O)NCC(=O)N[C@@H](CC(C)C)C(=O)N[C@@H](CCCCN)C(=O)N[C@@H](CCCCN)C(=O)N[C@@H](Cc1ccc(O)cc1)C(=O)NCC(N)=O [RGLRRLGRKIKKGLKKYG],MIC,[17],17.7 µM
same,MIC,[6],35.4 µM
same,MIC,[13],17.7 µM
same,MIC,Klebsiella pneumoniae,70.7 µM
